# According to US20070275382A1, “Biomarkers for the Efficacy of Somatostatin Analogue Treatment” (priority 2003, published 2007):
# *1 amine or outer side, *2 acyl side, *3 side chain or, on linkers, in order; H or OH if unused. Where a SMILES comes first, the peptide text is derived from it. Side-chain parts run from the residue outwards. [ ]: non-standard residue; d: D form. The star is where a group is joined. Ethylenediamine = C(CN[*:2])N[*:1]; Hyp = O=C(O)[CH]1C[CH](O)CN1; Phg = N[CH](C(=O)O)c1ccccc1; CO = O=C([*:1])[*:2]; Bn = c1ccc(C*)cc1
# Tested on: Pituitary gland
# Experiment: Microarray gene expression profiling (HG-U95A), pituitary
# Type: in vivo, cynomolgus monkeys
# Details: 100 μg/animal/day s.c., 14 days
# Method: Origin of tissue and processing. Male and female cynomolgus monkeys received subcutaneously pasireotide (100 μg/animal/day) or the vehicle for 14 days. On day 15, all animals were sacrificed and tissues for RNA extraction were immediately snap-frozen and kept at −80° C. until processing.
# RNA expression profiling was conducted by means of the HG-U95A gene expression probe array (Affymetrix; Santa Clara, Calif. USA), containing more than 12,600 probe sets interrogating primarily full-length human genes and also some control probe sets. The experiment was conducted according to the recommendations of the manufacturer. Briefly, total RNA was obtained by acid guanidinium thiocyanate-phenol-chloroform extraction (Trizol®, Invitrogen Life Technologies, San Diego, Calif. USA) from each frozen tissue section. The total RNA was then purified on an affinity resin (Rneasy®, Qiagen) and quantified. Double stranded cDNA was synthesized with a starting amount of approximately 5 μg full-length total RNA using the Superscript® Choice System (Invitrogen Life Technologies, Carlsbad, Calif. USA) in the presence of a T7-(dT)24 DNA oligonucleotide primer. Following synthesis, the cDNA was purified by phenol/chloroform/isoamyl alcohol extraction and ethanol precipitation. The purified cDNA was then transcribed in vitro using the BioArray® High Yield RNA Transcript Labeling Kit (ENZO, Farmingdale, N.Y. USA) in the presence of biotinylated ribonucleotides form biotin labelled cRNA. The labelled cRNA was then purified on an affinity resin (Rneasy®, Qiagen), quantified and fragmented. An amount of approximately 10 μg labelled cRNA was hybridized for 16 hours at 45° C. to an expression probe array. The array was then washed and stained twice with streptavidin-phycoerythrin (Molecular Probes,) using the GeneChip® Fluidics Workstation 400 (Affymetrix, Santa Clara, Calif. USA). The array was then scanned twice using a confocal laser scanner (GeneArray® Scanner, Agilent, Palo Alto, Calif. USA) resulting in one scanned image. This resulting “.dat-file” was processed using the MAS4 program (Affymetrix) into a “.cel-file”. The “.cel file” was captured and loaded into the Affymetrix GeneChip® Laboratory Information Management System (LIMS). The LIMS database is connected to a UNIX Sun Solaris server through a network filing system that allows for the average intensities for all probes cells (CEL file) to be downloaded into an Oracle database (NPGN). Raw data was converted to expression levels using a “target intensity” of 150. The data were evaluated for quality control and loaded in the GeneSpring® software 4.2.4 (Silicon Genetics, Calif. USA) for analysis.
# On the human Affymetrix HGU95Av2 chip, probe sets for individual genes contain 20 oligonucleotide pairs, each composed of a “perfect match” 25-mer and a “mismatch” 25-mer differing from the “perfect” match oligonucleotide at a single base. After probe labelling, hybridization, and laser scanning, the expression level was estimated by averaging the differences in signal intensity measured by oligonucleotide pairs of a given probe (AvgDiff value). The fold changes and directions were calculated for selected genes, from the differences of the AvgDiff values between controls and treated.
# To identify genes that were impacted by pasireotide, the dataset was initially filtered to exclude in a first wave of analysis, genes whose values were systematically in the lower expression ranges where the experimental noise is high (at least 80 in a number of experiments corresponding to the smallest number of replicas of any experimental point). In a second round of selection a threshold p-value of 0.05 (based on a t-test) identified differences between treated and control based on a two component error model (Global Error Model) and, whenever possible, with a stepdown correction for multi-hypothesis testing (Benjamini and Hochberg false discovery rate). […]
smiles,measurement,setting,value
"NCCCCC1NC(=O)C(Cc2c[nH]c3ccccc23)NC(=O)C(c2ccccc2)NC(=O)C2CC(OC(=O)NCCN)CN2C(=O)C(Cc2ccccc2)NC(=O)C(Cc2ccc(OCc3ccccc3)cc2)NC1=O (stereo not drawn) [Pasireotide, cyclo[4-(NH2—C2H4—NH—CO—O)Pro-Phg-DTrp-Lys-Tyr(4-Bzl)-Phe]] (cyclo(F[Hyp]([CO-Ethylenediamine])[Phg]WKY(Bn)); configuration not given here)",GFR bound protein 10 transcript fold change,↑ vs control,↑ x1.5
same,"GLUR 2, precursor transcript fold change",↑ vs control,↑ x1.5
same,GTP-binding protein 11 transcript fold change,↑ vs control,11 ↑ x2.5
same,Glucagon receptor transcript fold change,↑ vs control,↑ x7
same,IFN stimulated gene transcript fold change,↑ vs control,↑ x3.5
same,IFNγ-inducible protein 30 (IP30) transcript fold change,↑ vs control,30 (IP30) ↑ x1.5
same,"IGFBP, acid labile subunit transcript fold change",↑ vs control,subunit ↑ x3.5
same,"IP3 receptor, type 1 transcript fold change",↑ vs control,↑ x1.5
same,JAK 1 transcript fold change,↑ vs control,JAK 1 ↑ x2
same,MAPKKK5 transcript fold change,↑ vs control,MAPKKK5 ↑ x2
same,Neuroblastoma-amplified protein transcript fold change,↑ vs control,↑ x1.5
same,PKC inhibitor transcript fold change,↑ vs control,PKC inhibitor ↑ x2
same,"PP 1, regulatory (inhibitor) subunit 5 transcript fold change",↑ vs control,↑ x3.5
same,"PTP, receptor type, T transcript fold change",↑ vs control,↑ x2
same,Programmed cell death 6 transcript fold change,↑ vs control,death 6 ↑ x1.5
same,Putative Ca++ transporting ATPase transcript fold change,↑ vs control,↑ x2
same,"RAB 5C, member RAS oncogene family transcript fold change",↑ vs control,↑ x3
same,"Rab geranyltransferase, β subunit transcript fold change",↑ vs control,β subunit ↑ x2
same,Receptor (calcitonin) activity modifying protein 2 precursor transcript fold change,↑ vs control,x3.5
same,Receptor tyrosine kinase-like orphan receptor 2 transcript fold change,↑ vs control,receptor 2 ↑ x2
same,Regulator of G-protein signalling 9 transcript fold change,↑ vs control,↑ x2
same,S-phase response (cyclin-related) transcript fold change,↑ vs control,(cyclin-related) ↑ x2
same,SSTR3 transcript fold change,↑ vs control,SSTR3 ↑ x3
same,Thyroid transcription factor 1 transcript fold change,↑ vs control,factor 1 ↑ x2.5
same,VEGF B transcript fold change,↑ vs control,VEGF B ↑ x1.5
same,1-PI-4-phosphate 5-kinase isoform C transcript fold change,↓ vs control,kinase isoform C ↓ x1.5
same,"ATPase, H+/K+ exchanging, α polypeptide transcript fold change",↓ vs control,polypeptide ↓ x5
same,Arg PTK-binding protein transcript fold change,↓ vs control,protein ↓ x2.5
same,CD36 antigen transcript fold change,↓ vs control,CD36 antigen ↓ x2
same,"Catenin (cadherin-associated protein), α 1 (102 kD) transcript fold change",↓ vs control,α 1 (102 kD) ↓ x1.5
same,Cholecystokinin receptor transcript fold change,↓ vs control,receptor ↓ x4.5
same,"Cholinergic receptor, muscarinic 3 transcript fold change",↓ vs control,muscarinic 3 ↓ x3
same,"Cholinergic receptor, nicotinic, β polypeptide 4 transcript fold change",↓ vs control,4 ↓ x2
same,Cyclin F transcript fold change,↓ vs control,Cyclin F ↓ x2
same,Dual specificity phosphatase 8 transcript fold change,↓ vs control,phosphatase 8 ↓ x3
same,EGFRBP 2 transcript fold change,↓ vs control,EGFRBP 2 ↓ x1.5
same,FGFR 2 transcript fold change,↓ vs control,FGFR 2 ↓ x2
same,Fms-related tyrosine kinase 1 (VEGF/vascular permeability factor receptor) transcript fold change,↓ vs control,receptor) ↓ x1.5
same,Forkhead box O3A transcript fold change,↓ vs control,↓ x1.5
same,G-protein coupled receptor 49 transcript fold change,↓ vs control,receptor 49 ↓ x2
same,"GTP-binding protein (G protein), q polypeptide transcript fold change",↓ vs control,↓ x2.5
same,GTP-binding protein like-1 transcript fold change,↓ vs control,like-1 ↓ x3
same,Gastrin receptor transcript fold change,↓ vs control,Gastrin receptor ↓ x2
same,"IFNR2 (α, β and ω) transcript fold change",↓ vs control,↓ x2.5
same,IGF-2 transcript fold change,↓ vs control,IGF-2 ↓ x1.5
same,"IP-4-phosphatase, type 1, isoform b transcript fold change",↓ vs control,"type 1, isoform b ↓ x2"
same,"K+ channel, subfamily K, member 3 (TASK) transcript fold change",↓ vs control,↓ x4
same,"K+ voltage-gated channel, Shab-related subfamily, member 1 transcript fold change",↓ vs control,↓ x2
same,PDGFβ transcript fold change,↓ vs control,PDGFβ ↓ x2
same,"PI transfer protein, β transcript fold change",↓ vs control,↓ x2.5
same,"PI-3-kinase, catalytic, α polypeptide transcript fold change",↓ vs control,α polypeptide ↓ x3
same,"PI-3-kinase, catalytic, δ polypeptide transcript fold change",↓ vs control,↓ x2
same,PLCγ 1 transcript fold change,↓ vs control,PLCγ 1 ↓ x1.5
same,Phosphatase and tensin homolog (mutated in multiple advanced cancers 1) transcript fold change,↓ vs control,↓ x3.5
same,"Rab3 GTPase-activating protein, non catalytic subunit transcript fold change",↓ vs control,catalytic subunit ↓ x2
same,"Rab geranylgeranyl transferase, α subunit transcript fold change",↓ vs control,↓ x1.5
same,SHB adaptor protein (a Src homology 2 protein) transcript fold change,↓ vs control,↓ x2.5
same,"STAT 1, 91kδ transcript fold change",↓ vs control,"STAT 1, 91kδ ↓ x2"
same,Soluble adenylyl cyclase transcript fold change,↓ vs control,cyclase ↓ x2
same,"TNFR subfamily, member 14; herpesvirus entry mediator transcript fold change",↓ vs control,entry mediator ↓ x2.5
same,TNFR-associated factor 2 transcript fold change,↓ vs control,factor 2 ↓ x4
same,Thrombospondin-p50 transcript fold change,↓ vs control,↓ x2
